Laboratory results from the supplement of paper PMC10307832.

Experiments:
Bleomycin + Vorinostat = compound: CC1=C(N=C(N=C1N)[C@H](CC(=O)N)NC[C@@H](C(=O)N)N)C(=O)N[C@@H]([C@H](C2=CN=CN2)OC3C(C(C(C(O3)CO)O)O)OC4C(C(C(C(O4)CO)O)OC(=O)N)O)C(=O)N[C@H](C)[C@H]([C@H](C)C(=O)N[C@@H]([C@@H](C)O)C(=O)NCCC5=NC(=CS5)C6=NC(=CS6)C(=O)NCCC[S+](C)C)O [Bleomycin] + O=C(CCCCCCC(=O)Nc1ccccc1)NO [Vorinostat] (partner 1 µM); assay: relative viability (nuclei count vs DMSO), 5 days (fraction); higher = more cells survive; conditions: main component drawn
Summary of the method: (§1)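 Cells from lung cancer lines were seeded into 1536-well plates and, one day later, dosed by pin tool. Treatments were either a single drug or a fixed dose of an anchor drug with five library-drug doses (not always all listed) in √10 steps. After 5 days, nuclei were stained in a one-step fixation (final 0.05% Triton X-100, 1% formaldehyde, 1 ug/ml Hoechst) and counted on 4× images, and relative viability is the treated-to-vehicle nuclei ratio, as the median of duplicate plates.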

Bleomycin + AZD7762 = compound: CC1=C(N=C(N=C1N)[C@H](CC(=O)N)NC[C@@H](C(=O)N)N)C(=O)N[C@@H]([C@H](C2=CN=CN2)OC3C(C(C(C(O3)CO)O)O)OC4C(C(C(C(O4)CO)O)OC(=O)N)O)C(=O)N[C@H](C)[C@H]([C@H](C)C(=O)N[C@@H]([C@@H](C)O)C(=O)NCCC5=NC(=CS5)C6=NC(=CS6)C(=O)NCCC[S+](C)C)O [Bleomycin] + NC(=O)Nc1cc(-c2cccc(F)c2)sc1C(=O)N[C@H]1CCCNC1 [AZD7762] (partner 0.2 µM); assay: as above; conditions: main component drawn
Summary of the method: as §1

Row | Cell Line | relative viability (Bleomycin + Vorinostat; first compound 0.01 µM) | relative viability (Bleomycin + Vorinostat; first compound 0.03162 µM) | relative viability (Bleomycin + Vorinostat; first compound 0.1 µM) | relative viability (Bleomycin + Vorinostat; first compound 0.3162 µM) | relative viability (Bleomycin + Vorinostat; first compound 1 µM) | relative viability (Bleomycin + AZD7762; first compound 0.01 µM) | relative viability (Bleomycin + AZD7762; first compound 0.03162 µM) | relative viability (Bleomycin + AZD7762; first compound 0.1 µM) | relative viability (Bleomycin + AZD7762; first compound 0.3162 µM) | relative viability (Bleomycin + AZD7762; first compound 1 µM)
1 | NCI-H1944 | 0.284 | 0.244 | 0.265 | 0.154 | 0.152 | 0.246 | 0.384 | 0.317 | 0.211 | 0.172
2 | NCI-H1648 | 0.46 | 0.324 | 0.275 | 0.257 | 0.271 | 0.623 | 0.716 | 0.512 | 0.373 | 0.375
3 | 201T | 0.79 | 0.839 | 0.805 | 0.732 | 0.553 | 0.487 | 0.543 | 0.438 | 0.422 | 0.334
4 | NCI-H2347 | 0.487 | 0.518 | 0.414 | 0.338 | 0.39 | 0.727 | 0.858 | 0.714 | 0.325 | 0.45
5 | LOU-NH91 | 0.718 | 0.544 | 0.508 | 0.387 | 0.345 | 0.715 | 0.667 | 0.576 | 0.421 | 0.369
6 | NCI-H2085 | 0.777 | 0.721 | 0.679 | 0.378 | 0.386 | 0.896 | 0.967 | 0.828 | 0.301 | 0.464
7 | BEN | 0.63 | 0.609 | 0.481 | 0.531 | 0.497 | 0.735 | 0.736 | 0.66 | 0.534 | 0.606
8 | ChaGo-K-1 | 0.512 | 0.526 | 0.483 | 0.303 | 0.279 | 0.785 | 0.824 | 0.808 | 0.692 | 0.504
9 | LK-2 | 0.232 | 0.281 | 0.217 | 0.209 | 0.195 | 0.26 | 0.271 | 0.218 | 0.134 | 0.116
10 | NCI-H441 | 0.646 | 0.546 | 0.686 | 0.453 | 0.312 | 1.05 | 0.977 | 1.17 | 0.689 | 0.775
11 | NCI-H596 | 0.479 | 0.438 | 0.438 | 0.22 | 0.293 | 1.06 | 1.03 | 0.891 | 0.349 | 0.398
12 | ABC-1 | 1.24 | 1.28 | 1.07 | 0.684 | 0.579 | 0.748 | 1 | 0.845 | 0.573 | 0.34
13 | NCI-H1666 | 0.786 | 0.926 | 0.885 | 0.652 | 0.613 | 0.972 | 0.695 | 0.57 | 0.512 | 0.486
14 | NCI-H1993 | 0.669 | 0.585 | 0.864 | 0.303 | 0.386 | 0.723 | 0.822 | 0.739 | 0.491 | 0.517
15 | NCI-H1975 | 0.482 | 0.514 | 0.386 | 0.215 | 0.162 | 0.609 | 0.649 | 0.555 | 0.259 | 0.291
16 | HCC-44 | 0.906 | 0.989 | 0.733 | 0.459 | 0.383 | 0.955 | 1 | 0.965 | 0.646 | 0.573
